# Data published in PubChem BioAssay (NCI).
#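 These data come from cells grown in 96-well plates and exposed to compound for 48 hours at five concentrations. The concentration for 50% growth inhibition is given as GI50. TGI: concentration producing complete growth inhibition.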
# Key:
# Experiment in all cases: DTP human tumour cell line panel, 48 h
# SK-MEL-2 melanoma = system: SK-MEL-2 melanoma
# 786-0 renal = system: 786-0 renal
# MALME-3M melanoma = system: MALME-3M melanoma
# DU-145 prostate = system: DU-145 prostate
# A498 renal = system: A498 renal
# OVCAR-8 ovarian = system: OVCAR-8 ovarian
# UACC-257 melanoma = system: UACC-257 melanoma
# A549 NSCLC = system: A549 NSCLC
# SK-OV-3 ovarian = system: SK-OV-3 ovarian
# MDA-MB-435 = system: MDA-MB-435
# SN12C renal = system: SN12C renal
# SNB-75 CNS = system: SNB-75 CNS
# HL-60(TB) leukemia = system: HL-60(TB) leukemia
# LOX IMVI melanoma = system: LOX IMVI melanoma
# MCF7 breast = system: MCF7 breast
# HS 578T breast = system: HS 578T breast
# TK-10 renal = system: TK-10 renal
# MDA-MB-231 breast = system: MDA-MB-231 breast
# OVCAR-5 ovarian = system: OVCAR-5 ovarian
# SK-MEL-28 melanoma = system: SK-MEL-28 melanoma
# HCT-116 colon = system: HCT-116 colon
# KM12 colon = system: KM12 colon
# U251 CNS = system: U251 CNS
# MOLT-4 leukemia = system: MOLT-4 leukemia
# SF-268 CNS = system: SF-268 CNS
# SW-620 colon = system: SW-620 colon
# ACHN renal = system: ACHN renal
# OVCAR-3 ovarian = system: OVCAR-3 ovarian
# T-47D breast = system: T-47D breast
# UO-31 renal = system: UO-31 renal
# SK-MEL-5 melanoma = system: SK-MEL-5 melanoma
# COLO 205 colon = system: COLO 205 colon
# HOP-62 NSCLC = system: HOP-62 NSCLC
# HOP-92 NSCLC = system: HOP-92 NSCLC
# UACC-62 melanoma = system: UACC-62 melanoma
# HCC-2998 colon = system: HCC-2998 colon
# NCI/ADR-RES ovarian = system: NCI/ADR-RES ovarian
# OVCAR-4 ovarian = system: OVCAR-4 ovarian
# K-562 leukemia = system: K-562 leukemia
# CAKI-1 renal = system: CAKI-1 renal
# EKVX NSCLC = system: EKVX NSCLC
# PC-3 prostate = system: PC-3 prostate
# M14 melanoma = system: M14 melanoma
# IGROV1 ovarian = system: IGROV1 ovarian
# NCI-H226 lung = system: NCI-H226 lung
# CCRF-CEM leukemia = system: CCRF-CEM leukemia
# SF-539 CNS = system: SF-539 CNS
# NCI-H23 lung = system: NCI-H23 lung
# SF-295 CNS = system: SF-295 CNS
# SNB-19 CNS = system: SNB-19 CNS
# HT29 colon = system: HT29 colon
# BT-549 breast = system: BT-549 breast
# NCI-H460 lung = system: NCI-H460 lung
# HCT-15 colon = system: HCT-15 colon
# RPMI-8226 leukemia = system: RPMI-8226 leukemia
# NCI-H522 lung = system: NCI-H522 lung
# SR leukemia = system: SR leukemia
structure (smiles),measurement,setting,value
CC(C)(O)c1cncc(-c2ccc3ncc(C#N)c(N4CCc5cc(F)c(Cl)cc54)c3c2)c1,GI50,SK-MEL-2 melanoma,4.26 µM
same,TGI,SK-MEL-2 melanoma,21.6 µM
same,GI50,786-0 renal,3.86 µM
same,TGI,786-0 renal,> 100 µM
same,GI50,MALME-3M melanoma,1.99 µM
same,TGI,MALME-3M melanoma,7.06 µM
same,GI50,DU-145 prostate,3.71 µM
same,TGI,DU-145 prostate,> 100 µM
same,GI50,A498 renal,2.07 µM
same,TGI,A498 renal,6.17 µM
same,GI50,OVCAR-8 ovarian,3.19 µM
same,TGI,OVCAR-8 ovarian,> 100 µM
same,GI50,UACC-257 melanoma,4.22 µM
same,TGI,UACC-257 melanoma,63.3 µM
same,GI50,A549 NSCLC,3.64 µM
same,TGI,A549 NSCLC,> 100 µM
same,GI50,SK-OV-3 ovarian,1.83 µM
same,TGI,SK-OV-3 ovarian,8.64 µM
same,GI50,MDA-MB-435,3.36 µM
same,TGI,MDA-MB-435,32.4 µM
same,GI50,SN12C renal,2.03 µM
same,TGI,SN12C renal,> 100 µM
same,GI50,SNB-75 CNS,1.22 µM
same,TGI,SNB-75 CNS,5.67 µM
same,GI50,HL-60(TB) leukemia,6.06 µM
same,TGI,HL-60(TB) leukemia,28.2 µM
same,GI50,LOX IMVI melanoma,1.81 µM
same,TGI,LOX IMVI melanoma,17.3 µM
same,GI50,MCF7 breast,6 µM
same,TGI,MCF7 breast,53.4 µM
same,GI50,HS 578T breast,1.23 µM
same,TGI,HS 578T breast,4.7 µM
same,GI50,TK-10 renal,8.33 µM
same,TGI,TK-10 renal,40 µM
same,GI50,MDA-MB-231 breast,2.6 µM
same,TGI,MDA-MB-231 breast,30.4 µM
same,GI50,OVCAR-5 ovarian,3.3 µM
same,TGI,OVCAR-5 ovarian,82.7 µM
same,GI50,SK-MEL-28 melanoma,3.39 µM
same,TGI,SK-MEL-28 melanoma,41 µM
same,GI50,HCT-116 colon,5.84 µM
same,TGI,HCT-116 colon,> 100 µM
same,GI50,KM12 colon,6.81 µM
same,TGI,KM12 colon,> 100 µM
same,GI50,U251 CNS,4.71 µM
same,TGI,U251 CNS,> 100 µM
same,GI50,MOLT-4 leukemia,3.11 µM
same,TGI,MOLT-4 leukemia,> 100 µM
same,GI50,SF-268 CNS,3.84 µM
same,TGI,SF-268 CNS,> 100 µM
same,GI50,SW-620 colon,4.51 µM
same,TGI,SW-620 colon,> 100 µM
same,GI50,ACHN renal,2.89 µM
same,TGI,ACHN renal,> 100 µM
same,GI50,OVCAR-3 ovarian,2.91 µM
same,TGI,OVCAR-3 ovarian,40.3 µM
same,GI50,T-47D breast,4.06 µM
same,TGI,T-47D breast,76.5 µM
same,GI50,UO-31 renal,0.554 µM
same,TGI,UO-31 renal,8.69 µM
same,GI50,SK-MEL-5 melanoma,3.95 µM
same,TGI,SK-MEL-5 melanoma,13.8 µM
same,GI50,COLO 205 colon,4.48 µM
same,TGI,COLO 205 colon,26.7 µM
same,GI50,HOP-62 NSCLC,2.7 µM
same,TGI,HOP-62 NSCLC,57.3 µM
same,GI50,HOP-92 NSCLC,1.79 µM
same,TGI,HOP-92 NSCLC,7.79 µM
same,GI50,UACC-62 melanoma,1.84 µM
same,TGI,UACC-62 melanoma,10.2 µM
same,GI50,HCC-2998 colon,3.75 µM
same,TGI,HCC-2998 colon,63.8 µM
same,GI50,NCI/ADR-RES ovarian,4.4 µM
same,TGI,NCI/ADR-RES ovarian,98.2 µM
same,GI50,OVCAR-4 ovarian,2.84 µM
same,TGI,OVCAR-4 ovarian,18.5 µM
same,GI50,K-562 leukemia,7.09 µM
same,TGI,K-562 leukemia,> 100 µM
same,GI50,CAKI-1 renal,2.37 µM
same,TGI,CAKI-1 renal,> 100 µM
same,GI50,EKVX NSCLC,2.55 µM
same,TGI,EKVX NSCLC,11.3 µM
same,GI50,PC-3 prostate,2.86 µM
same,TGI,PC-3 prostate,> 100 µM
same,GI50,M14 melanoma,3.79 µM
same,TGI,M14 melanoma,> 100 µM
same,GI50,IGROV1 ovarian,1.57 µM
same,TGI,IGROV1 ovarian,6.55 µM
same,GI50,NCI-H226 lung,1.77 µM
same,TGI,NCI-H226 lung,15.4 µM
same,GI50,CCRF-CEM leukemia,4.25 µM
same,TGI,CCRF-CEM leukemia,> 100 µM
same,GI50,SF-539 CNS,2.88 µM
same,TGI,SF-539 CNS,15.8 µM
same,GI50,NCI-H23 lung,3.6 µM
same,TGI,NCI-H23 lung,64.3 µM
same,GI50,SF-295 CNS,2.38 µM
same,TGI,SF-295 CNS,14.1 µM
same,GI50,SNB-19 CNS,4.08 µM
same,TGI,SNB-19 CNS,> 100 µM
same,GI50,HT29 colon,3.31 µM
same,TGI,HT29 colon,> 100 µM
same,GI50,BT-549 breast,2.7 µM
same,TGI,BT-549 breast,22.7 µM
same,GI50,NCI-H460 lung,3.24 µM
same,TGI,NCI-H460 lung,> 100 µM
same,GI50,HCT-15 colon,4.28 µM
same,TGI,HCT-15 colon,> 100 µM
same,GI50,RPMI-8226 leukemia,2.92 µM
same,TGI,RPMI-8226 leukemia,87.4 µM
same,GI50,NCI-H522 lung,3.95 µM
same,TGI,NCI-H522 lung,> 100 µM
same,GI50,SR leukemia,3.52 µM
same,TGI,SR leukemia,> 100 µM
